Assay results taken from ChEMBL document CHEMBL1126162, “A steric and electrostatic comparison of three models for the agonist/antagonist binding site on the adenosine A1 receptor” (J Med Chem, 1992).
“And” between values parts separate entries of the source, which are not always exact repeats. Equal values may be shown once.

target: T1, Adenosine receptor A1 (Rattus norvegicus, UniProt P25099); test: Evaluated for binding affinity against Adenosine A1 receptor
T1 sequence (P25099 whole entry): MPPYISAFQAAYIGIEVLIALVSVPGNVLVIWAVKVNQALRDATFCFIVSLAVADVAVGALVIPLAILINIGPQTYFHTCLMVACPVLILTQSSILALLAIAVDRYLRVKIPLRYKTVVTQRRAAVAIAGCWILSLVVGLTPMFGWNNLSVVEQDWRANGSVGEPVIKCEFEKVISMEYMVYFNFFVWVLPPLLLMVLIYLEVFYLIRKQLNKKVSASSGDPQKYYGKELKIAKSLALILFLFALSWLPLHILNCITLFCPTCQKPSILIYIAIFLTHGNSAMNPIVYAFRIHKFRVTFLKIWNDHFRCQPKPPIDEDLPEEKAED

Compared with `Cc1ccccc1Nc1ncnc2c1ncn2C1O[C@H](CO)[C@@H](O)[C@H]1O` (stereo partly specified), `OC[C@H]1OC(n2cnc3c(Nc4ccccc4F)ncnc32)[C@H](O)[C@@H]1O` (stereo partly specified) is 2.2-fold lower in IC50: 8.91 nM for the first, 3.98 nM for the second.

First: OC[C@H]1OC(n2cnc3c(Nc4ccc(F)cc4)ncnc32)[C@H](O)[C@@H]1O (stereo partly specified)
Second: Cc1ccc(Nc2ncnc3c2ncn3C2O[C@H](CO)[C@@H](O)[C@H]2O)cc1 (stereo partly specified)
The IC50 of the first is 2.5-fold lower: 2 nM for the first, 4.9 nM for the second.

Going from `COc1cccc(Nc2ncnc3c2ncn3C2O[C@H](CO)[C@@H](O)[C@H]2O)c1` (stereo partly specified) to `Cc1cccc(Nc2ncnc3c2ncn3C2O[C@H](CO)[C@@H](O)[C@H]2O)c1` (stereo partly specified), the IC50 falls from 46.8 nM to 26.9 nM (1.7-fold). The second is the more potent here.

Going from `CCCc1ccccc1Nc1ncnc2c1ncn2C1O[C@H](CO)[C@@H](O)[C@H]1O` (stereo partly specified) to `CCCc1ccccc1Nc1ncnc2c1ncn2C1OC(CO)[C@@H](O)[C@H]1O` (single isomer, unassigned), the IC50 rises from 1.2 nM to 52.5 nM (44-fold). The first is the more potent here.

First: OC[C@H]1OC(n2cnc3c(Nc4cccc(F)c4)ncnc32)[C@H](O)[C@@H]1O (stereo partly specified)
Second: OC[C@H]1O[C@@H](n2cnc3c(Nc4ccccc4)ncnc32)[C@H](O)[C@@H]1O [N6-PHENYLADENOSINE]
The IC50 of the first is 3.3-fold lower: 1 nM for the first, 3.31 nM for the second.

Compared with `OC[C@H]1O[C@@H](n2cnc3c(NC4CC4)ncnc32)[C@H](O)[C@@H]1O`, `OC[C@H]1OC(n2cnc3c(NCC4CCCCC4)ncnc32)[C@H](O)[C@@H]1O` (stereo partly specified) is 19-fold higher in IC50: 2.09 nM for the first, 39.8 nM for the second. The first is the more potent here.

Going from `COc1ccccc1Nc1ncnc2c1ncn2C1O[C@H](CO)[C@@H](O)[C@H]1O` (stereo partly specified) to `OC[C@H]1OC(n2cnc3c(Nc4ccc(Cl)cc4)ncnc32)[C@H](O)[C@@H]1O` (stereo partly specified), the IC50 falls from 85.1 nM to 2.19 nM (39-fold). The second is the more potent here.

For `COc1ccc(Nc2ncnc3c2ncn3[C@@H]2O[C@H](CO)[C@@H](O)[C@H]2O)cc1`, the IC50 was 8.91 nM and 4.57 nM.

Going from `CCCn1c(=O)c2nc(-c3ccc(OC)cc3)[nH]c2n(CCC)c1=O` to `CCCn1c(=O)c2[nH]c(-c3ccccc3)nc2n(CCC)c1=O`, the Ki rises from 4.57 nM to 11 nM (2.4-fold). The first binds more tightly here.

Compared with `Cn1c(=O)c2[nH]c(-c3ccc(Cl)cc3)nc2n(C)c1=O`, `Cn1c(=O)c2[nH]c(-c3ccc(F)cc3)nc2n(C)c1=O` is 2.8-fold higher in Ki: 0.646 nM for the first, 1.82 nM for the second. The first binds more tightly here.

Compared with `Cn1c(=O)c2nc(-c3cccc(F)c3)[nH]c2n(C)c1=O`, `Cc1cccc(-c2nc3c([nH]2)c(=O)n(C)c(=O)n3C)c1` is 2.2-fold higher in Ki: 2.4 nM for the first, 5.37 nM for the second. The first binds more tightly here.

Compared with `Cc1ccc(-c2nc3c([nH]2)c(=O)n(C)c(=O)n3C)cc1`, `Cn1c(=O)c2[nH]c(-c3ccccc3F)nc2n(C)c1=O` is 13-fold higher in Ki: 0.513 nM for the first, 6.76 nM for the second.

Going from `CCCn1c(=O)c2nc(Cc3ccccc3)[nH]c2n(CCC)c1=O` to `CCCn1c(=O)c2[nH]c(CC3CCCCC3)nc2n(CCC)c1=O`, the Ki falls from 891 nM to 38.9 nM (23-fold). The second binds more tightly here.

Compound `COc1ccccc1-c1nc2c([nH]1)c(=O)n(C)c(=O)n2C` has a Ki of 191 nM.
